Calls of active or inactive are those of the source.
Tests used:
[1] = target: T1, Ubiquitin-conjugating enzyme E2 N (Homo sapiens, UniProt P61088); format: functional
T1 sequence (P61088 whole entry): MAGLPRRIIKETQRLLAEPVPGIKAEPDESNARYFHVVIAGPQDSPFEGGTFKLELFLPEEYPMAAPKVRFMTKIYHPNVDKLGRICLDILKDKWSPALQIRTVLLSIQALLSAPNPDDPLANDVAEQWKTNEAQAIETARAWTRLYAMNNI

[2] = target: T1, Ubiquitin-conjugating enzyme E2 N; format: functional; remark: listed apart in the source
Bcl-2-related protein A1 = target: T2, Bcl-2-related protein A1 (Mus musculus, UniProt Q07440); format: functional;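 further: confirmatory dose–response counterscreen on Bfl-1, used to check hits from a UBC13 polyubiquitin inhibitor campaign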
T2 sequence (Q07440 whole entry): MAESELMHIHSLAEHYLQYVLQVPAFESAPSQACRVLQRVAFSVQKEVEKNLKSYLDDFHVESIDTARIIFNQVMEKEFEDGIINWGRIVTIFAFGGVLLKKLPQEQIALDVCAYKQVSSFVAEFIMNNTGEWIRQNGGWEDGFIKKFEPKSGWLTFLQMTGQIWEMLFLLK

[3] = target: T3, Heat shock factor protein 1 (Mus musculus, UniProt P38532); test: inhibition of MG132-induced HSE-luciferase signal, confirmation, cell-based, NIH3T3, luminescence, dose retest (AID 2382); format: functional;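 further: NIH3T3 fibroblasts with HSF1-driven luciferase reporter stressed by proteasome inhibitor MG132; luminescence from HSF1-driven luciferase expression after 8 hours of MG132 stress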
T3 sequence (P38532 whole entry): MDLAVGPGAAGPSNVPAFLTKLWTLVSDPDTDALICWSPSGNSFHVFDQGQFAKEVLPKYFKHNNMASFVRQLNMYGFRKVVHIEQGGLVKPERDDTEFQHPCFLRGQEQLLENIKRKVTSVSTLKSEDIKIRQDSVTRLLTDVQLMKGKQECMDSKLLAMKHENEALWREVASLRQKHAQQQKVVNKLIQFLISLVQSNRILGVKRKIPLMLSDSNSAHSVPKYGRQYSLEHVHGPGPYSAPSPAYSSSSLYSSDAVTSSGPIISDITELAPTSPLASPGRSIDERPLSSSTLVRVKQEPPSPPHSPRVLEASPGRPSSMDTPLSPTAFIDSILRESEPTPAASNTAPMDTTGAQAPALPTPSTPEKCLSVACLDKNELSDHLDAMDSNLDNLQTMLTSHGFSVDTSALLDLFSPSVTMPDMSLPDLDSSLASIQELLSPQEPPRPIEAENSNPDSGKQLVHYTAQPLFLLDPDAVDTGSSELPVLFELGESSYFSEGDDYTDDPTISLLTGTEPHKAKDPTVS

[4] = Vero E6 cell cytotoxicity, dose response, cytotoxicity control for non-replicating M. tuberculosis project, secondary assay (AID 492998); format: functional, VeroE6; conditions: Vero C1008
[5] = HepG2 cell cytotoxicity, dose response, cytotoxicity control for non-replicating M. tuberculosis project (AID 489018); format: functional; conditions: Mycobacterium tuberculosis
[6] = target: T4, Microphthalmia-associated transcription factor (Homo sapiens, UniProt O75030); test: TRPM1 promoter luciferase signal decrease, dose response, MITF inhibitor project, cell-based, SK-MEL-5, cherry-picked, set 3 (AID 493073); format: functional
T4 sequence (O75030 whole entry): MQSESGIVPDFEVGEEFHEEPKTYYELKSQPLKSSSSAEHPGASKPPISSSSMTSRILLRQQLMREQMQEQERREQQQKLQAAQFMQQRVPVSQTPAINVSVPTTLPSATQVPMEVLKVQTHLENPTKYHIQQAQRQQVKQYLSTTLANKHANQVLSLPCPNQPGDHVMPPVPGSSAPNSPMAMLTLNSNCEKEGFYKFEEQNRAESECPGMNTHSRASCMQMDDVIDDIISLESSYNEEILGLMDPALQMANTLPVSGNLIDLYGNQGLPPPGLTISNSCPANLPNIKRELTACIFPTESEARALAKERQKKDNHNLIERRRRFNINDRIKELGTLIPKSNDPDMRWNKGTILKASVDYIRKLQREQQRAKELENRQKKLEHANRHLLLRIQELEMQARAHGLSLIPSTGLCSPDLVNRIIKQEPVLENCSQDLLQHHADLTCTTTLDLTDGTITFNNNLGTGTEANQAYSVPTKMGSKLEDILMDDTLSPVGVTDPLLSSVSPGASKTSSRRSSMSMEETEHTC

cells = format: functional
[7] = THP-1 cell cytotoxicity, dose response, cytotoxicity control for non-replicating M. tuberculosis project (AID 489025); format: functional
[8] = target: Intestinal-type alkaline phosphatase (Mus musculus, UniProt P24822); test: PubChem AID 488785; format: functional
Sequence of Intestinal-type alkaline phosphatase (Mus musculus, UniProt P24822) (P24822 whole entry): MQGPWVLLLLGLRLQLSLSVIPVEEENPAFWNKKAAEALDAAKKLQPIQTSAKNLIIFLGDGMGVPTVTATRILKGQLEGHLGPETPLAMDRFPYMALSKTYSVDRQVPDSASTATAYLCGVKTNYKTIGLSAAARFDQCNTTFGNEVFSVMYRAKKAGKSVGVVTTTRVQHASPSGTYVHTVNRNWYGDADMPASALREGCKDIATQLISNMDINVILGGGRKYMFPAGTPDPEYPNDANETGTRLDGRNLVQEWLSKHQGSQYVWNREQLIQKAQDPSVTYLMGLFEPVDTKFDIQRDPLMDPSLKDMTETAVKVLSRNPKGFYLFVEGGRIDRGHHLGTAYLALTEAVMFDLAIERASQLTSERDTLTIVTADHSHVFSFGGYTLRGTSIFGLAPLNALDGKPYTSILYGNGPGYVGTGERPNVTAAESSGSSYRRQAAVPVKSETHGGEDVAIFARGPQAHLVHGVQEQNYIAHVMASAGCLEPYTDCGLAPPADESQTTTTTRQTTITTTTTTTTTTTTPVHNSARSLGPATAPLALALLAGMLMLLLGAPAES

[9] = target: T5, Alkaline phosphatase, tissue-nonspecific isozyme (Homo sapiens, UniProt P05186); test: TNAP enzyme inhibition by screening hits, dose response, selectivity assay for mouse IAP inhibitor project, biochemical, human TNAP, uHTS hits (AID 488906); format: functional
T5 sequence (P05186 whole entry): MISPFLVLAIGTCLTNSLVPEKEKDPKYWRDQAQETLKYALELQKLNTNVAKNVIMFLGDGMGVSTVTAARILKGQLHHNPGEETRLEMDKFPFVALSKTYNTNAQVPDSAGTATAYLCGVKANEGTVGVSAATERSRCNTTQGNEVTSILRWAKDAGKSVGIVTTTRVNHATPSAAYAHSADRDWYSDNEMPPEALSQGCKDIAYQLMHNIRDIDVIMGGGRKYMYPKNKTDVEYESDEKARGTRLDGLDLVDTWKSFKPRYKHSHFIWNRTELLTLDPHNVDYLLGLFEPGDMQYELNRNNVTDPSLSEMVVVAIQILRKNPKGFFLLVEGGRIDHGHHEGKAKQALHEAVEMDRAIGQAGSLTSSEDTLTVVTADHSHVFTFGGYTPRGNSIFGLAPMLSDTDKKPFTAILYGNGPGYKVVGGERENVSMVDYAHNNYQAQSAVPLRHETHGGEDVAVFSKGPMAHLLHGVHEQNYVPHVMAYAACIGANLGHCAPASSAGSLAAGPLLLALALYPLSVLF

[10] = target: Intestinal-type alkaline phosphatase (Homo sapiens, UniProt P09923); test: inhibition of human intestinal alkaline phosphatase – biochemical, dose response (AID 488876); format: functional
Sequence of Intestinal-type alkaline phosphatase (Homo sapiens, UniProt P09923) (P09923 whole entry): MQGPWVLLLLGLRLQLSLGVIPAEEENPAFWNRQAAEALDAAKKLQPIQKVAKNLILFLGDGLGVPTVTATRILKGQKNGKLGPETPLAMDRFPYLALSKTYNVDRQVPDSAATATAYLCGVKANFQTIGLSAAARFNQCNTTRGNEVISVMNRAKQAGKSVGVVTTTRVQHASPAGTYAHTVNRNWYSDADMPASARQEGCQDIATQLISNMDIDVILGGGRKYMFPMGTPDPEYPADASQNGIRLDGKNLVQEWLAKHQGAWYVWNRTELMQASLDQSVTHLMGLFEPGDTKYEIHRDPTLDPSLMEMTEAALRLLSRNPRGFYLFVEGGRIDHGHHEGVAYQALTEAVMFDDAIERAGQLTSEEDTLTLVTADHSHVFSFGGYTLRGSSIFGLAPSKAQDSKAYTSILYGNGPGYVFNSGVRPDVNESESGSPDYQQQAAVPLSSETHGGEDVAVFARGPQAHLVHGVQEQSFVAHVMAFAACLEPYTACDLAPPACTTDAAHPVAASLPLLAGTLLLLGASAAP

[11] = target: T6, Calpain-2 catalytic subunit (Sus scrofa, UniProt P43367); test: pig calpain II inhibitor potency, dose response, biochemical, fluorogenic peptide substrate (AID 1420); format: functional
T6 sequence (P43367 whole entry): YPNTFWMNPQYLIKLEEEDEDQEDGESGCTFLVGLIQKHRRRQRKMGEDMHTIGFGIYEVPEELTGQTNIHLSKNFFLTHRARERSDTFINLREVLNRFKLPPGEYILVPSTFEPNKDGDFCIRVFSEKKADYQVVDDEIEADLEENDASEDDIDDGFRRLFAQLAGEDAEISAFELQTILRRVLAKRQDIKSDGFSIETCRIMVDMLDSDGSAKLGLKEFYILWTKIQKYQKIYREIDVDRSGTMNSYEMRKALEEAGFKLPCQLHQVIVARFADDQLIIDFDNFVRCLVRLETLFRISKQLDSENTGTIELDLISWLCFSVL

HEK293 [12] = test: NOD1 signaling inhibitors, primary screen, cell-based, luminescence, uHTS (AID 1578); format: functional; conditions: Homo sapiens
[13] = target: Nucleotide-binding oligomerization domain-containing protein 2 (Homo sapiens, UniProt Q9HC29); test: NOD2 signaling inhibitors, cell-based, luminescence, uHTS, HEK293 (AID 1566); format: functional
Sequence of Nucleotide-binding oligomerization domain-containing protein 2 (Q9HC29 whole entry, the tested form may be a part): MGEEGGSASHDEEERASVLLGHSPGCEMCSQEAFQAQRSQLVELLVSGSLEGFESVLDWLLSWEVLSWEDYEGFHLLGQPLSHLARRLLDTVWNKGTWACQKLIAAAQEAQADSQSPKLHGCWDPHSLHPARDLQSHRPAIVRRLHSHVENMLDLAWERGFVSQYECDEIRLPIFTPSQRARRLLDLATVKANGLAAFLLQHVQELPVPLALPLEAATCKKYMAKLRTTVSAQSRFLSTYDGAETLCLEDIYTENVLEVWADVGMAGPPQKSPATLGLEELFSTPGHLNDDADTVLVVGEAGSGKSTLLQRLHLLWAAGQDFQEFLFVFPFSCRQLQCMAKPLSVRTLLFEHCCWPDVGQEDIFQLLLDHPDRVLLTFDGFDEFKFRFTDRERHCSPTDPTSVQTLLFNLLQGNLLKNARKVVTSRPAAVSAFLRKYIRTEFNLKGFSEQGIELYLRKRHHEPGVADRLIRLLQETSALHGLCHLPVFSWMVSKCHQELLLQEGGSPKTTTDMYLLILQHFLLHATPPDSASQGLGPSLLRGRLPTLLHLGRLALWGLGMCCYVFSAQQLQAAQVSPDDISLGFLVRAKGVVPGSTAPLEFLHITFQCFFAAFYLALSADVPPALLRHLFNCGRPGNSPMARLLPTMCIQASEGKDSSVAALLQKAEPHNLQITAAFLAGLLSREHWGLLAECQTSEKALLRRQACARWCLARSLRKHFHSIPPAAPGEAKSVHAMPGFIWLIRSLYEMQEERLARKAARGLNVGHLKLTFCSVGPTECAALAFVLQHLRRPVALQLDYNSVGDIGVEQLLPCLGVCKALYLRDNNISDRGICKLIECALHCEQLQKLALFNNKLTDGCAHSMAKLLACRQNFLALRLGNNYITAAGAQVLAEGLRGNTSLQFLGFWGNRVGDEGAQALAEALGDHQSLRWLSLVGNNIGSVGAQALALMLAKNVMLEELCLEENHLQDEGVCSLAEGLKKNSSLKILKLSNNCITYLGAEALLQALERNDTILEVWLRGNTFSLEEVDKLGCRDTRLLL

HEK293 [14] = test: cells; format: functional, cell-based; conditions: Homo sapiens
HEK293 [15] = test: NOD2 signaling inhibitors in MDP-stimulated cells, cell-based, uHTS, luminescence (AID 2001); format: functional; conditions: Homo sapiens
HEK293 [16] = test: cells; format: functional, cell-based; conditions: Homo sapiens; remark: listed apart in the source
HEK293 [17] = test: cells; format: functional, cell-based; conditions: Homo sapiens; remark: listed apart in the source

**Q.** For `Oc1[nH]c2ccccc2c1N=NC(S)=NCC1CCCO1` (stereo not given), which IC50 [1] is on record?
**A.** The IC50 was 0.967 µM (active).

**Q.** What about the IC50 [2] of the same compound?
**A.** Its IC50 is 1.73 µM (active).

**Q.** And the IC50 (Bcl-2-related protein A1)?
**A.** Its IC50 is > 20 µM (inactive).

**Q.** What about the EC50 [3] of the same compound?
**A.** Its EC50 is > 195 µM (not active).

**Q.** With `CCOC(=O)c1cc(-c2ccncc2)nc2c1c(C)nn2C` as the compound, how does the IC50 [1] read?
**A.** Its IC50 is 5.32 µM (active).

**Q.** What about the IC50 [2] of the same compound?
**A.** The IC50 was 11.3 µM (active).

**Q.** What about the IC50 (Bcl-2-related protein A1) of the same compound?
**A.** Its IC50 is > 20 µM (inactive).

**Q.** Which results are given for `CN1C/C(=C/c2cccnc2)C(=O)/C(=C/c2cccnc2)C1`?
**A.** CC50 [4]: > 20 µM (active); CC50 [5]: 8.54 µM (active); AC50 [6]: 5.31 µM (active); IC50 (cells): 16.8 µM (active); CC50 [7]: 6.26 µM (active)

**Q.** Which results are given for `NS(=O)(=O)c1ccc(NC(=S)NC(=O)/C=C/c2ccco2)cc1`?
**A.** IC50 [8]: 1.87 µM (active); IC50 [9]: > 100 µM (inactive); IC50 [10]: 8.09 µM (active)

**Q.** Which IC50 [1] does the source give for `O=C(CCCCCN1C(=O)c2ccccc2C1=O)Nc1ccc(S(=O)(=O)N2CCCCC2)cc1` here?
**A.** The IC50 was 1.34 µM (active).

**Q.** And the IC50 [2]?
**A.** The IC50 was 0.982 µM (active).

**Q.** What about the IC50 (Bcl-2-related protein A1) of the same compound?
**A.** Its IC50 is > 20 µM (inactive).

**Q.** And the IC50 [11]?
**A.** The IC50 was 2.38 µM (not active).

**Q.** Which results are given for `O=C(CCl)Nc1ccccc1Sc1ccc(Cl)cc1`?
**A.** EC50 (HEK293 [12]): 7.79 µM (active); EC50 [13]: 6.69 µM (active); IC50 (HEK293 [14]): > 20 µM (inactive); IC50 (HEK293 [15]): 9.91 µM (active); IC50 (HEK293 [16]): 4.56 µM (active); IC50 (HEK293 [17]): > 20 µM (inactive)

From ChEMBL document CHEMBL1201862, “PubChem BioAssay data set” (2004)
